Results as given in patent publication US20240360153A1 (Regeneron Pharmaceuticals, Inc., priority 2023, published 2024).
pIC50: −log10 of the molar value.

Tests used:
[1] = In vitro microsomal metabolic stability, human liver microsomes; format: in vitro ADME
Procedure: (§1) Buffers: PBK Buffer: 50 mM potassium phosphate buffer (PPB), pH 7.2, with 3.3 mM Magnesium Chloride.
(§2) TA Intermediate solution: Compound or control (3 μL) diluted from stock solution (10 mM) with 297 μL 90.0% methanol/water. (Conc: 100 μM; 1.0% DMSO, 89.1% MeOH).
(§3) Control cocktail intermediate solution: Each control (3 μL) was diluted with 291 μL 90.0% methanol/water.
(§4) Diluted TA intermediate stock solution and PC control stock were made by transferring 80 μL of 100 μM TA stock solution into new tubes and then adding 720 μL of 1.0% DMSO in 50 mM potassium phosphate buffer (conc. 10 μM; 1.0% DMSO, 8.91% MeOH).
(§5) Preparation of Liver microsomes working solution (1.25×)(final Conc.: 0.5 mg/mL).
(§6) Acetonitrile:methanol (9:1, v/v)(including 200 ng/mL tolbutamide and 200 ng/ml labetalol hydrochloride as internal standards).
(§7) Working solution: Intermediate solution (80 μL) was diluted with 720 μL 1.0% DMSO in 50 mM potassium phosphate buffer (Conc.: 10 μM; 1.0% DMSO, 8.91% MeOH)
(§8) Procedure: Stock solution was added to each of the time point plates. Microsomes solution (360 μL/well), TA/PC (45 μL/well), and NADPH (45 μL/well) min. (Conc: 1.0 μM, 0.10% DMSO, 0.891% MeOH) were added to the incubation plates. To the T60 and NCF60 plate, TA (15 ul/well) and Microsomes (120 ul) were added. To the blank plate, microsome (50 ul/well) with stop solution (150 ul/well) were added. At the end of each time point, 50 ul/well was aliquoted from the incubation plate. The sampling plates were shaken for approximately 10 min. on a shaker and the samples were centrifuged at 4000 rpm for 15 min. Supernatant (120 μL) was transferred for LC/MS/MS.Compounds from Table 3 were incubated at 37° C. with liver microsomes (pooled from multiple donors) at 1 μM in the presence of a NADPH regenerating system at 0.5 mg/ml microsomal protein. Positive controls included testosterone (3A4 substrate), propafenone (2D6) and diclofenac (2C9), which were incubated with microsomes in the presence of an NADPH regenerating system. At time points (0, 5, 10, 20, 30 and 60 minutes), samples were removed and immediately mixed with cold acetonitrile containing the internal standard (IS). Test compounds incubated with microsomes without the NADPH regenerating system for 60 min are also included. A single point for each test condition (n=1) was obtained, and samples were analyzed by LC/MS/MS. Disappearance of the test compound was assessed based on peak area ratios of analyte/IS (no standard curve).

[2] = In vitro microsomal metabolic stability, CD-1 mouse liver microsomes; format: in vitro ADME
Procedure: as §1, §2, §3, §4, §5, §6, §7, §8

[3] = system: S6K1 (Thr389) phosphorylation (mTORC1 activity) in FKBP12 knock-out 293T cells; experiment: Inhibition of S6K1 (Thr389) phosphorylation in FKBP12 knock-out 293T cells (ELISA); format: cell-based, human; settings: for selectivity for FKBP12 compared with RAD001 (in words): wild-type versus FKBP12 knock-out cells; for inhibition at 10 µM: Homo sapiens, HEK-293T, 10 μM (highest tested concentration)
From the text: Example Generation of FKBP 12 knock-out cells. A CRISPR/Cas9 system was used to deliver ribonucleoprotein complexes containing guide RNA sequences that target FKBP12 (ac[…], location 1369062; ccactactcac[…], location 1369181) in HEK293T cells using Lipofectamine CRISPRMAX transfection reagent (Invitrogen CMAX00008). Cell clones were screened by immunoblotting with anti-FKBP-specific antibody (Novus, NB300-508). Single cells that were deficient for FKBP12 protein were selected and cloned.
(§9) Treatment of wild-type (WT) and FKBP12 knock-out 293T cells with RAD001 (everolimus) and test compounds. WT and FKBP12 knock-out 293T cells were cultured in Dulbecco's modified Eagle's medium (Gibco #11971-025) supplemented with 10% fetal bovine serum (Gibco #26140-079). Cells were plated at a density of 15,000 cells per well in poly-D-Lysine coated 96-well plates (Corning, #354461) and were incubated at 37° C., 5% CO2 for 24 hours until they reached ˜80% confluence. Cells were treated with RAD001 or test compounds reconstituted in dimethyl sulfoxide (DMSO) using a 8-11-point dose range, from 0.001 pM to 10 μM. All treatments were performed in duplicates for 2 hours at 37° C. Cell culture media supplemented with blank dimethyl sulfoxide (DMSO) was used as a negative control for all compounds. Phosphorylated amounts of S6K1 (Thr389) were measured using an ELISA kit (Invitrogen 85-86052-11), following the manufacture's protocol.
(§10) S6K1 is an immediate downstream target of mTORC1 and therefore phosphorylation of S6K1 at Thr389 residue is used to measure mTORC1 activity (PMID: 16968213). Amounts of phosphorylated S6K1 (Thr389) were measured in WT and FKBP12 knock-out 293T cells treated with either RAD001 or Compound 44 (FIGS. 1A and 1B), and Compound 45 (FIGS. 1C and 1D).

[4] = system: S6K1 (Thr389) phosphorylation (mTORC1 activity) in wild-type (WT) 293T cells; experiment: Inhibition of S6K1 (Thr389) phosphorylation in wild-type 293T cells (ELISA); format: cell-based, human; settings: for pIC50: Homo sapiens, HEK-293T, 2 h, wild-type 293T cells, 2 hours treatment; for extent of inhibition of S6K1 (Thr389) phosphorylation / fold lower potency compared with RAD001 (by IC50): wild-type cells; for extent of inhibition of S6K1 (Thr389) phosphorylation: with increasing concentrations
Procedure: as §9, §10

[5] = human, human liver microsomes, pH 7.2
[6] = CD-1, mouse, mouse liver microsomes, pH 7.2

SMILES	Remaining (T = 60 min) ([1]; Human liver microsomes, with NADPH, 60 min) [%]	Remaining (T = NCF60 min) ([1]; Human liver microsomes, without NADPH regenerating system, 60 min) [%]	CLint scaled at 1 µM [1, 5] [mL/min/kg]	microsomal CLint at 1 µM [1, 5] [µL/min/mg]	half-life at 1 µM ([1]; pH 7.2, Human liver microsomes, 1 μM, 0.5 mg/ml protein, NADPH) [min]	CLint scaled at 1 µM [2, 6] [mL/min/kg]	microsomal CLint at 1 µM [2, 6] [µL/min/mg]	half-life at 1 µM ([2]; CD-1, pH 7.2, Mouse liver microsomes, 1 μM, 0.5 mg/ml protein, NADPH) [min]	Remaining (T = 60 min) ([2]; Mouse liver microsomes, with NADPH, 60 min) [%]	Remaining (T = NCF60 min) ([2]; Mouse liver microsomes, without NADPH regenerating system, 60 min) [%]	IC50 of inhibition of S6K1 (Thr389) ([3]; FKBP12 knock-out 293T cells)	inhibition of S6K1 (Thr389) phosphorylation in the absence of FKBP12 (in words) ([3]; FKBP12 knock-out cells)	selectivity for FKBP12 compared with RAD001 (in words) [3]	pIC50 [4]	extent of inhibition of S6K1 (Thr389) phosphorylation [4]	inhibition at 10 µM ([3]; FKBP12 knock-out cells) [%]	fold lower potency compared with RAD001 (by IC50) [4] [fold]	concentration achieving 20% inhibition of S6K1 (Thr389) phosphorylation ([3]; FKBP12 knock-out cells) [nM]
CO[C@@H]1CC(C[C@@H](C)[C@@H]2CC[C@H](C)/C=C(\C)[C@@H](O)[C@@H](OC)C(=O)[C@H](C)C[C@H](C)/C=C/C=C/C=C(\C)C(Nc3cncc(C)n3)CC3CC[C@@H](C)[C@@](O)(O3)C(=O)C(=O)N3CCCC[C@H]3C(=O)O2)CC[C@H]1O (stereo partly drawn) [Compound 28, (3S,6S,7E,9R,10R,12R,14S,15E,17E,19E,23S,26R,27R,34aS)-9,27-dihydroxy-3-((R)-1-((1S,3R,4R)-4-hydroxy-3-methoxycyclohexyl)propan-2-yl)-10-methoxy-6,8,12,14,20,26-hexamethyl-21-((6-methylpyrazin-2-yl)amino)-5,6,9,10,12,13,14,21,22,23,24,25,26,27,32,33,34,34a-octadecahydro-3H-23,27-epoxypyrido[2,1-c][1]oxa[4]azacyclohentriacontine-1,11,28,29(4H,31H)-tetraone]	19.40	84.00	47.5	52.8	26.3	65.7	16.6	83.5	59.40	106	not measurable/detectable	behaved in a similar fashion to RAD001	not greater compared with RAD001	8.52	complete inhibition			
CO[C@@H]1C[C@H](C[C@@H](C)[C@@H]2CC[C@H](C)/C=C(\C)[C@@H](O)[C@@H](OC)C(=O)[C@H](C)C[C@H](C)/C=C/C=C/C=C(\C)C(N(C)c3ccccc3)C[C@@H]3CC[C@@H](C)[C@@](O)(O3)C(=O)C(=O)N3CCCCC3C(=O)O2)CC[C@H]1O (stereo partly drawn) [Compound 63, (3S,6S,7E,9R,10R,12R,14S,15E,17E,19E,23S,26R,27R,34aS)-9,27-dihydroxy-3-((R)-1-((1S,3R,4R)-4-hydroxy-3-methoxycyclohexyl)propan-2-yl)-10-methoxy-6,8,12,14,20,26-hexamethyl-21-(methyl(phenyl)amino)-5,6,9,10,12,13,14,21,22,23,24,25,26,27,32,33,34,34a-octadecahydro-3H-23,27-epoxypyrido[2,1-c][1]oxa[4]azacyclohentriacontine-1,11,28,29(4H,31H)-tetraone]													more selective than RAD001	8.61	near complete inhibition	17	10	
COC1C(=O)[C@H](C)C[C@H](C)/C=C/C=C/C=C(\C)C(NS(=O)(=O)c2cccc(C)c2)C[C@@H]2CC[C@@H](C)[C@@](O)(O2)C(=O)C(=O)N2CCCC[C@H]2C(=O)OC([C@H](C)CC2CC[C@@H](O)C(OC)C2)CC[C@H](C)/C=C(\C)C1O (stereo partly drawn) [Compound 72, N-((3S,6S,7E,9R,10R,12R,14S,15E, 17E,19E,23S,26R,27R,34aS)-9,27-dihydroxy-3-((R)-1-((1S,3R,4R)-4-hydroxy-3-methoxycyclohexyl)propan-2-yl)-10-methoxy-6,8,12,14,20,26-hexamethyl-1,11,28,29-tetraoxo-1,4,5,6,9,10,11,12,13,14,21,22,23,24,25,26,27,28,29,31,32,33,34,34a-tetracosahydro-3H-23,27-epoxypyrido[2,1-c][1]oxa[4]azacyclohentriacontin-21-yl)-3-methylbenzenesulfonamide]												inhibited S6K1 (Thr389)phosphorylation in a dose dependent manner		9.04	near complete inhibition	40	5.2	
COC1C(=O)[C@H](C)C[C@H](C)/C=C/C=C/C=C(\C)C(N(C)S(=O)(=O)c2ccccc2)C[C@@H]2CC[C@@H](C)[C@@](O)(O2)C(=O)C(=O)N2CCCC[C@H]2C(=O)OC([C@H](C)CC2CC[C@@H](O)C(OC)C2)CC[C@H](C)/C=C(\C)C1O (stereo partly drawn) [Compound 73, N-((3S,6S,7E,9R,10R,12R,14S,15E, 17E,19E,23S,26R,27R,34aS)-9,27-dihydroxy-3-((R)-1-((1S,3R,4R)-4-hydroxy-3-methoxycyclohexyl)propan-2-yl)-10-methoxy-6,8,12,14,20,26-hexamethyl-1,11,28,29-tetraoxo-1,4,5,6,9,10,11,12,13,14,21,22,23,24,25,26,27,28,29,31,32,33,34,34a-tetracosahydro-3H-23,27-epoxypyrido[2,1-c][1]oxa[4]azacyclohentriacontin-21-yl)-N-methylbenzenesulfonamide]													not FKBP12 selective	8.65	near complete inhibition	~60	13	2.7
